Test results reported in patent US8523975B2, “Salts of mineral nutrients stabilized with amino acids and/or ammonium salt, products and food supplements that contain them and procedures for obtaining same” (priority 2005, dated 2013).

What was measured:
[1] = reference data (Merck Index XII / manufacturer Bartek Inc.); cited from earlier work
[2] = Comparative data of solubility in water; settings: 25° C., solubility expressed as iron

Compound	Solubility in water at 25° C. (non-stabilized salt) [1]	Fe++ (ferrous) allowed per liter of water [2]
O.O.O.O=C([O-])/C=C/C(=O)[O-].[Ca+2] [Calcium Fumarate 3H2O]	1.22 grams per liter	–
O=C([O-])/C=C/C(=O)[O-].[Fe+2] [Ferrous fumarate]	1.4 grams per liter	0.460 gr Fe++ per liter of water
